Values of other authors, collected in patent US20250262166A1, “NANOPARTICLES COMPRISING ENZALUTAMIDE” (priority 2019, published 2025).

## CNC(=O)c1ccc(N2C(=S)N(c3ccc(C#N)c(C(F)(F)F)c3)C(=O)C2(C)C)cc1F [Enzalutamide]
  solubility in water: insoluble in water
